Assay results: patent publication US20090105149A1, “Compounds comprising lpa” (ENKAM PHARMACEUTICALS A/S, priority 2003, published 2009)

Columns and labels:
hippocampal neurons = experiment: Neurite outgrowth, hippocampal neurons; assay type: cell-based, rat; settings: 24 h
Protocol: The cultures were subsequently immunostained for tyrosine hydroxylase. Hippocampal neurons and CGN were plated at a density of 10,000 cells/cm^2 on 8-well permanox chamber slides and incubated for 24 hours in the presence of various concentrations of FGLd. Subsequently the neurons were immunostained for GAP-43. Results from at least five independent experiments for each neuronal culture are shown as percentage ±SEM with the untreated controls set at 100%. *p<0.05, **p<0.01, ***p<0.001 when compared to the controls.
Results from at least four independent experiments are shown as percentage SEM with untreated controls set at 100%. **p<0.01 when compared to the controls.
Peptide solutions without or with inhibitors of various signal transduction pathways were added to a total volume of 300 μl/cm^2, and the slides were incubated at 37° C. After 24 hours, the neurons were fixed with 4% (v/v) formaldehyde for 20 minutes and thereafter immunostained using primary rabbit antibodies against GAP-43 and Alexa Fluor secondary goat anti-rabbit antibodies. Images of at least 200 neurons for each group in each individual experiment were obtained systematically by using computer assisted fluorescence microscopy as previously described (Rønn et al., 2000 op. cit.). Briefly, a Nikon Diaphot inverted microscope with a Nikon Plan 20× objective (Nikon, Tokyo, Japan) coupled to a video camera (Grundig Electronics, Germany) was used for recordings. The same software package as described above for the dopaminergic neurite outgrowth assay was used to process the recorded images.

[1] = system: organotypic hippocampal neuronal slice cultures (OHSC); experiment: OGD, metabolic activity (MTS) in organotypic hippocampal slice cultures; assay type: cell-based, rat
Description: In the present study it was investigated the effect of the FGL peptide on synaptic plasticity, neuronal function and vulnerability following oxygen and glucose deprivation (OGD) in organotypic hippocampal neuronal slice cultures (OHSC) from 7-day-old Wistar rats according to method of Stoppini et al. (1991) Neurosci Methods. 37:173-82 and primary cultures of dissociated hippocampal neurons from 1-day-old rats according to method of Maar et al. (1997) J Neurosci Res. 47:163-72. Primary cell cultures were maintained for 11-12 days and OHSC for 12-14 days prior to adding FGLd.
The primary cell cultures and OHSC were exposed to OGD for 10 and 20 minutes. Following OGD, the cultures were again supplied with oxygen and glucose and analysed at 1, 4 or 24 hour time point after introduction of OGD exposure. FGLd (or the control peptide FGLc) was added 24 hr before, immediately, or 1 hr or 24 hr after OGD. […]
In hippocampal neuronal cultures, FM 1-43 staining was used to evaluate pre-synaptic function (described above). Cell viability in both primary cell cultures and OHSC was measured using the […] [3-(4,5-dimethylthiazol-2-yl)-2,5-diphenyltetrazolium bromide] assay according to Malich et al, (1997) Toxicology. […] In, addition, cell viability in OHSC was measured using propidium iodide (PI) staining according to Laake et al. (1999) Brain Res Brain Res Protoc. […]

[2] = system: rats treated with (25-35) β-amyloid fragment; experiment: Social Recognition test, (25-35) β-amyloid fragment rat model; assay type: in vivo; settings: days 7, 10, 13
Protocol: The results are from the experiment in which the suboccipital administration of 5.0 μg FGL per administration per rat was done at days 7, 10, and 13 after A-β-induced neurotoxicity. […] The number of animals in the groups varied from 4 to 22. The results were analysed using one-way ANOVA (F(2,27)=15.4, P<0.0001) and significance of results was contingent on achieving a p-value of less than 0.05 (**p<0.01), when compared to the A-β/V group (Newman-Keuls post-test). […] FGLcontrol as above.
[…] The number of animals per group varied from 4 to 5. The results were analysed using unpaired t-test and significance of results was contingent on achieving a p-value of less than 0.05 (*p<0.05), when compared to the A-β/N group. […]
The present study employed a rat model, in which neurotoxicity and cognitive impairment were induced by the (25-35) β-amyloid peptide fragment (see Maurice T., et al. (1996) (Brain Res. 706:181-93) and Delobette S., et al. (1997) Eur J Pharmacol. 319:1-4). […] Short-term memory deficit in rats was evaluated using three different behavioural tests: the Social Recognition (Kogan et al, (2000) Hippocampus 10:47-56), Open Field (Cerbone and Sadile, (1994) Neurosci Biobehav Rev. 18:497-518; Vianna et al, (2000) Learn Mem. 7:333-40) and Y-maze (Clayton & Williams, (2000) Neurobiol Learn Mem. 74:135-45) tests. […]

## FGLd: MAP-type dendrimer of FGL; dendrimeric tetramer of the FGL peptide (EVYVVAENQQGKSKA)
Hippocampal neurons; 0.04 up to 20 μg/ml, untreated control = 100%
  neurite length, hippocampal neurons, plateau-like level: approximately 150%
Hippocampal neurons; HN E19, 3 μg/mL
  Effect on Neurite Length (Percent Increase vs. Control): 65%
Hippocampal neurons; HN E19, 9 μg/mL
  Effect on Neurite Length (Percent Increase vs. Control): 51%
Hippocampal neurons; HN E19, 27 μg/mL
  Effect on Neurite Length (Percent Increase vs. Control): 69%
Hippocampal neurons; HN Newborn, 0.04 μg/mL
  Effect on Neurite Length (Percent Increase vs. Control): 38%
Hippocampal neurons; HN Newborn, 5 μg/mL
  Effect on Neurite Length (Percent Increase vs. Control): 45%
[1]; no OGD
  metabolic activity (MTS), treatment alone: led to an increase in metabolic activity
[1]; treated 24 hours prior to OGD, 1 h and 24 h after OGD
  metabolic activity (MTS) after OGD: caused a normalization of the metabolic activity
[2]; Study 1, sub-occipital, tested at day 14
  Social Recognition test: No effect
[2]; Study 2, sub-occipital 5 μg, vs β-amyloid fragment only
  Social Recognition test, time exploring a juvenile rat during the second trial: significantly reduced the increased time spent
